Laboratory results as given in US11604184B2, “Juvenile atopic dermatitis models” (Laboratoires Expanscience, priority 2016, dated 2023).

Tested on: S. aureus biofilm
Test: Model for studying S. aureus biofilm on reconstructed epidermises (scanning electron microscopy)
Assay type: cell-based, Staphylococcus aureus (MRSA; ATCC 33591)
Conditions: 24 hours after colonization
Procedure: The test products (P1, P5 or P8) or 5% xylitol (positive control for inhibition of biofilm formation) were applied topically to reconstructed epidermises at a rate of 30 μL/epidermis, after undergoing slight surface abrasion.
After incubation overnight, the products were removed by rinsing and a 2·10^6 cfu inoculum of Staphylococcus aureus (methicillin-resistant S. aureus, MRSA; ATCC 33591) was applied to the surface of the reconstructed epidermises.
Biofilm formation and the effect of the product thereon were observed visually by scanning electron microscopy (SEM) 6 and 24 hours after colonization.

OC[C@@H](O)[C@H](O)[C@@H](O)CO [xylitol]
S. aureus biofilm formation on the surface of epidermises, observed by SEM (in words): did not produce biofilm
